According to patent US20110200554A1, “THERAPEUTIC AGENT FOR HEPATITIS C” (priority 2008, published 2011):

Columns and labels:
[1] = system: Renilla luciferase driven by EMCV IRES in OR6c cells; experiment: Control transfection: EMCV IRES-driven Renilla luciferase plasmid pEMCV-RL in cured OR6c cells; assay type: cell-based, human; conditions: cured OR6c cells transfected with pEMCV-RL, HU added 24 h after transfection, 72 h culture
Protocol: In accordance with Patent Literature 1, a plasmid encoding Renilla luciferase driven by the internal ribosome entry site (IRES) of encephalomyocarditis virus (EMCV) was transfected into OR6c cells which were OR6 cells cured by IFN, with FuGENE6 reagent (produced by Roche Diagnostics), and 24 hours after transfection, the cells were treated with various concentrations of HU and cultured for 72 hours.

[2] = system: genome-length HCV RNA replication in OR6 cells; experiment: Genome-length HCV replication assay in OR6 cells (Renilla luciferase reporter); assay type: cell-based, Hepatitis C virus (HCV); conditions: luciferase activity
Excerpt: Briefly, the cells described in Patent Literature 1 used for the screening were as follows: That is, the cells were those obtained by introducing, into Oc cells (FERM P-20517) originated from a human hepatocarcinoma cell line HuH-7, a plasmid containing full length of HCV genome, luciferase gene as a reporter gene and neomycin-resistant gene (neomycin phosphotransferase gene) as a selection marker gene. More specifically, the cells (OR6 cells) were the Oc cells (FERM P-20517) originated from a human hepatocarcinoma cell line HuH-7, into which a plasmid having an RNA containing, from the 5′-end, internal ribosome entry site (IRES) sequence of HCV, luciferase gene, neomycin phosphotransferase gene, IRES sequence originated from encephalomyocarditis virus (EMCV), HCV open reading frame sequence and HCV 3′ untranslated sequence. After culturing the OR6 cells in a culture medium containing a test compound whose anti-viral activity against HCV (that is, therapeutic effect against hepatitis C) is to be examined, the luciferase activity of the cells is measured. […] Therefore, the lower the luciferase activity measured, the higher the anti-HCV activity. In Patent Literature 1, it was experimentally confirmed that correlation between the luciferase activity measured and the amount of HCV RNA is very high, so that it has been confirmed that this system has a high reliability. […]

HCV RNA (virus level) = experiment: Clinical test in patients with intractable hepatitis C, serum HCV RNA by real-time PCR (TaqMan); assay type: in vivo, human; conditions: oral 1500 mg/day for 4 weeks
Protocol: Serum HCV RNA level (log IU/ml) was measured every week from before the administration to the end of the therapy by the real-time detection PCR method using TaqMan (trade name) probe.

OR6 cells = experiment: Cell viability, viable cell count after trypan blue staining; assay type: cell-based, human; conditions: 72 h, HU at each concentration up to 100 μmol/L
Protocol: In order to examine the cytotoxic effects of HU on OR6 cells, the cells were seeded onto dishes of diameter 95 mm at a density of 400,000 cells per dish, and cultured for 72 hours after adding HU to a concentration of 0, 50, 100, and 150 μmol/L, respectively. The number of viable cells was then counted by a hematocytometer after staining with trypan blue dye.

[3] = serum HCV RNA (log IU/ml), 12 patients

Substance	inhibition of Renilla fluorescence (control plasmid) [1]	IC50 ([2]; 72-h treatment, HU up to 150 μmol/L, read-out: 50% replication inhibition concentration) [µM]	patients with decrease in the virus level (HCV RNA) (HCV RNA (virus level); 9 out of 12 patients, intractable hepatitis C, serogroup 1, high virus level) [%]	decrease in the virus level, average (HCV RNA (virus level); [3]) [Log]	decrease in the virus level, maximum (HCV RNA (virus level); [3]) [Log]	number of viable cells compared to untreated cells (OR6 cells)	50% inhibition concentration ([2]; 72 h treatment) [IU/mL]
hydroxyurea [HU]	did not inhibit	60	75	0.22	0.37	no significant difference	
interferon α							1.2
